Test results published in patent publication US20070122352A1, “Inhalation Drug Combinations” (GLAXO GROUP LIMITED, priority 2001, published 2007).

Test system: HPA axis
Experiment: 24-hour urinary cortisol excretion as a measure of HPA suppression
Assay type: in vivo, human
Conditions: 24 h post-dose urine, single dose, healthy subjects
Description: The below examples are used to exemplify the present invention and are in no way meant to narrow the scope of the invention. The examples compare the systemic pharmacokinetic and pharmacodynamic of a MDI made up of two drugs, namely, salmeterol and fluticasone propionate combined in a HFA propellant, namely 134a, with individual salmeterol and fluticasone propionate MDIs in a CFC propellant administered individually and with placebo (HFA 134a propellant alone). Healthy human subjects were given either salmeterol and fluticasone propionate in HFA 134a propellant, salmeterol in P11/P12, fluticasone propionate in P11/P12, or a placebo in HFA 134a propellant, in a randomized, single dose, crossover study. Potential side effects such as increased heart rate and QTc interval were measured. The levels of cortisol in the urine were also measured as a measure of HPA suppression. Twenty healthy human subjects were randomized into one of four treatment groups. […] Cortisol levels were determined from 500 μl of urine by automated immunochemiluminescence on the ASC-180 (Bayer Diagnostics) following preliminary extraction of the urine with dichloromethane. […] For untransformed parameters, the 90% (or 95%) confidence interval for the difference in least squares means was expressed as a ratio of the individual mean.

CCC(=O)O[C@]1(C(=O)SCF)[C@H](C)C[C@H]2[C@@H]3C[C@H](F)C4=CC(=O)C=C[C@]4(C)[C@@]3(F)[C@@H](O)C[C@@]21C [fluticasone propionate, S-(fluoromethyl)6α,9-difluro-11β,17-dihydroxy-16α-methyl-3-oxoandrosta-1,4-diene-17β-carbothioate,17-propionate]
post-treatment geometric mean urinary cortisol excreted: 18.5 µg
